Laboratory results published in patent US8426358B2, “Methods for treating atherosclerosis” (Amgen Inc., priority 2006, dated 2013).
Numbering of substitutions follows the chain as printed.

Legend:
LCAT mutant H377A = target: T1, LCAT mutant H377A (Homo sapiens, UniProt P04180, H401A); test: Activity of loss-of-function LCAT mutant H377A with or without compound; assay type: biochemical; conditions: nonfunctional enzyme
T1 construct: full-length human LCAT cDNA was isolated from normal human liver cDNA library; FLAG (C); His (C); made in house; host or cells: CHO cells, secreted into serum-free medium
T1 sequence (P04180 25-440 H401A): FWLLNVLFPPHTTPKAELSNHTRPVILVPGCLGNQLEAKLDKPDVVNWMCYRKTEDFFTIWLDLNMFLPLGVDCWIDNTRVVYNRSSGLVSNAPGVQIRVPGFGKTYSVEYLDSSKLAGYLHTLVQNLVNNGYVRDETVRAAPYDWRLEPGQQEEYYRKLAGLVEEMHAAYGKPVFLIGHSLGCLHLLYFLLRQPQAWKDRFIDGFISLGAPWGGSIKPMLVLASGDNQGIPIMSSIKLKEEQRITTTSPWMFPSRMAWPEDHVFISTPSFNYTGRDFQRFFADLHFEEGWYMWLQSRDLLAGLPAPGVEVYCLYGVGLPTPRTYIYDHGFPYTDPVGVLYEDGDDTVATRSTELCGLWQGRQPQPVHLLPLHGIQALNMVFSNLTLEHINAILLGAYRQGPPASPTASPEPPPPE
Description: (§1) For measuring compound activity using apoAI-liposome assay format, full-length human LCAT cDNA was isolated from normal human liver cDNA library (BioChain, Hayward, Calif.) with standard protocol and cloned into a pCMV-Flag vector (See Example 18). Recombinant LCAT was expressed in CHO cells and the enzyme secreted from stably transfected cells was harvested in serum-free culture medium. Recombinant LCAT identity was confirmed with anti-human LCAT and anti-Flag antibodies. The activity of recombinant LCAT enzyme was determined using apoAI-liposome substrates prepared by the standard cholate-dialysis procedure (Chen et al. (1982) J. Lipid Res. 23: 680-691. The initial mixture contained egg PC/^3H-unesterfied cholesterol/human apoAI (molar ratio of 250:12.5:0.8). After dialysis the proteoliposomes were incorporated with recombinant LCAT protein. LCAT activity was determined by measuring the conversion of radiolabeled cholesterol to cholesteryl ester and expressed in nmol CE/mL per hour.
(§2) Results summarized in FIG. 2(B) illustrate the mechanism of action of compounds of the invention on LCAT enzyme. Two loss-of-function LCAT mutants, H377A and S181A were generated, in which the critical catalytic triad of the enzyme was destroyed as described in Francone et al. (1991) Biochemistry 30: 10074-77; Peelman et al. (1998) Protein Sci. 7: 587-599; and Peelman et al. (2000) Curr. Opin. Lipidol. […]

LCAT = test: Plasma LCAT activity assay in LCAT-deficient (lcat -/-) plasma samples; assay type: biochemical; conditions: lcat -/- mutant mouse plasma, in the presence or absence of compound
Experimental: (§3) Activity of the modified LCAT of the invention and activities of compounds of the invention were determined by measuring change of the rate of conversion of ^3H-labeled cholesterol to cholesteryl ester (CE). In the plasma LCAT activity assay, human plasma samples were equilibrated with a trace amount of radiolabeled cholesterol at 4° C. and the rate of cholesterol esterification was measured by TLC analysis after incubation at 37° C. (Dobiasova, supra). EC50 represents a compound concentration achieving 50% of maximal activation of LCAT-mediated cholesterol esterification. Results presented in FIG. 2(A) confirm activity and specificity of the compounds of the invention on LCAT enzyme. This experiment studied the effect of Compound A in LCAT-deficient plasma samples obtained from lcat mutant mice. Ng et al. (1997) J. Biol. Chem. 272:1 5777-81.

LCAT enzyme = target: T2, LCAT enzyme (Mus musculus, UniProt P16301); test: Plasma LCAT activity after IP dosing of BALB/c mice; assay type: in vivo; conditions: male, DEPG vehicle, FIG. 3
T2 construct: from tissue; host or cells: plasma of BALB/c mice dosed IP
T2 sequence (P16301 25-438): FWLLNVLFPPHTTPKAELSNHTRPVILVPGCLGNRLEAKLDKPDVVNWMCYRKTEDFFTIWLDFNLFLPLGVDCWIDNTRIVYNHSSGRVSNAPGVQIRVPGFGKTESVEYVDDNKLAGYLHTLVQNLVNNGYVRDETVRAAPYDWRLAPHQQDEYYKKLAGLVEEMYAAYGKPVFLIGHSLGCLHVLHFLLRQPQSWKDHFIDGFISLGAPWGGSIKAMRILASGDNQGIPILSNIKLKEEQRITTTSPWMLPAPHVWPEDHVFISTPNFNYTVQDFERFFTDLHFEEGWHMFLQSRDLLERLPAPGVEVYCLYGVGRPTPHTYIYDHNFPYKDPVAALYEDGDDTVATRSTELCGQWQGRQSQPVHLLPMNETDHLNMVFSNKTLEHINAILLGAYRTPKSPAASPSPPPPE
Experimental: as §3, with “esterification.” for “esterification. Results presented in FIG. 2(A) confirm activity and specificity of the compounds of the invention on LCAT enzyme. This experiment studied the effect of Compound A in LCAT-deficient plasma samples obtained from lcat mutant mice. Ng et al. (1997) J. Biol. Chem. 272:1 5777-81.”
(§4) Rodents used for assessing the in vivo effects of the compounds of the invention include BALB/c mice, CD1 mice, and Syrian hamsters of wild type fed with normal chew. These animals were treated with either vehicle or Compound A (3-(5-ethylthio)-1,3,4-thiadiazol-2-ylthio)pyrazine-2-carbonitrile) by IP injection. At time points (see Figures) after compound administration, blood samples were collected, plasma was immediately separated, and plasma levels of lipids, lipoprotein and LCAT activity were determined.
Briefly, BALB/c mice (male, 7 weeks old) were treated with either vehicle or Compound A by intra-peritoneal (IP) in the indicated doses. Animals were fed normal chow diet. […]

[1] = Plasma TC, HDL and LpB cholesterol in Syrian hamsters after IP dosing; assay type: in vivo; conditions: IP 20 mg/kg, one dose per day, 4 days, FIG. 6
Experimental: as §4
Hamsters (Syrian, male, 12 weeks old, n=6 per group) were treated with either vehicle (control) or Compound A via IP administration (20 mg/kg, one dose per day, 4 days). Plasma samples were collected and concentrations of total cholesterol (TC), panel B, and HDL cholesterol (panel A) were measured. LpB cholesterol contents were obtained by subtracting HDL from TC (panel C).

LCAT mutant S181A = target: T3, LCAT mutant S181A (Homo sapiens, UniProt P04180, S205A); test: Activity of loss-of-function LCAT mutant S181A with or without compound; assay type: biochemical; conditions: nonfunctional enzyme
T3 construct: full-length human LCAT cDNA was isolated from normal human liver cDNA library; FLAG (C); His (C); made in house; host or cells: CHO cells, secreted into serum-free medium
T3 sequence (P04180 25-440 S205A): T1 sequence (P04180 25-440 H401A) with S181A, A377H
Description: as §1, §2

[2] = HDL particle size profiles by Gradient Gel Electrophoresis (GGE) of pooled hamster plasma; assay type: in vivo; conditions: hamsters, 20 mg/kg/day, 4 days
Experimental: Hamsters were treated with either vehicle or Compound A as described above (20 mg/kg/day, 4 days, n=6). Plasma samples were collected and pooled for each group. An aliquot of pooled plasma was analyzed using GGE as described in Blanche et al. (1981) BBA 665: 408-419.

LCAT C184A mutant = target: T4, LCAT C184A mutant (Homo sapiens, UniProt P04180, C208A); test: Activation of recombinant LCAT C184A mutant; assay type: biochemical; conditions: recombinant protein
T4 construct: full-length human LCAT cDNA was isolated from normal human liver cDNA library; FLAG (C); His (C); made in house; host or cells: CHO cells, secreted into serum-free medium
T4 sequence (P04180 25-440 C208A): T1 sequence (P04180 25-440 H401A) with C184A, A377H
Description: as §1, §2

[3] = FPLC elution profiles of pooled hamster plasma (cholesterol, triglyceride); assay type: in vivo; conditions: hamsters, IP 20 mg/kg/day, 4 days, FIG. 7
Experimental: Hamsters (n=6) were treated with either vehicle (control), or Compound A via IP administration (20 mg/kg/day, 4 days). Plasma samples were pooled within each treatment group, and separated by FPLC using two serially connected Superose 6 columns (Pharmacia Biotech Inc.). Cholesterol (panel A) and triglyceride (panel B) levels were determined in 0.5 ml fractions.

[4] = Plasma HDL cholesterol in CD1 mice after IP dosing; assay type: in vivo; conditions: IP 20 mg/kg, one dose per day, 4 days, FIG. 4
Experimental: as §4
CD1 male three month old mice were treated with either vehicle (control) or with Compound A by IP injection (20 mg/kg, one dose per day, 4 days, n=8). Plasma samples were collected and HDL cholesterol concentrations were determined standard reagents and assay protocol using clinical analyzer (Infinity).

LCAT C31A mutant = target: T5, LCAT C31A mutant (Homo sapiens, UniProt P04180, C55A); test: Activation of recombinant LCAT C31A mutant; assay type: biochemical; conditions: recombinant protein
T5 construct: full-length human LCAT cDNA was isolated from normal human liver cDNA library; FLAG (C); His (C); made in house; host or cells: CHO cells, secreted into serum-free medium
T5 sequence (P04180 25-440 C55A): T1 sequence (P04180 25-440 H401A) with C31A, A377H
Description: as §1, §2

Compound: CCSc1nnc(Sc2nccnc2C#N)s1 [Compound A]
- LCAT activity of H377A mutant (LCAT mutant H377A): No activity was observed
- LCAT activity in LCAT-deficient plasma (LCAT): No LCAT activity was detected
- Plasma LCAT enzyme activity (LCAT enzyme): increase LCAT enzyme activity in a dose dependent manner
- HDL levels [1]: increases HDL levels
- apoB-containing lipoprotein (LpB cholesterol = TC minus HDL) [1]: decreases apoB-containing lipoprotein
- LCAT activity of S181A mutant (LCAT mutant S181A): No activity was observed
- HDL particle size (GGE) [2]: increase of HDL particle size
- HDL particle size profile, HDL subclass 2a ([2]; GGE): 39
- HDL particle size profile, HDL subclass 2b ([2]; GGE): 56
- HDL particle size profile, HDL subclass 3a ([2]; GGE): 3
- HDL particle size profile, HDL subclass 3b ([2]; GGE): 1
- HDL particle size profile, HDL subclass 3c ([2]; GGE): 1
- Response of C184A mutant to compound (LCAT activation) (LCAT C184A mutant): able to respond to the treatment in a dose dependent manner comparable to that of the wild type enzyme
- HDL particle size (FPLC) [3]: increases HDL particle size
- HDL-Ch levels (FPLC) [3]: increases HDL-Ch levels
- TG levels in the VLDL fraction (FPLC) [3]: decrease TG levels in the VLDL fraction
- HDL cholesterol levels [4]: increases HDL cholesterol levels
- Response of C31A mutant to compound (LCAT activation) (LCAT C31A mutant): failed to be activated
